Results as given in patent publication US8440612B2, “Controlling giardiosis” (Bayer Intellectual Property GmbH, priority 2008, dated 2013).
Where “and” joins values, the source holds several entries; their conditions need not be identical. Equal values may be shown once.

System: Giardia duodenalis
Experiment: Giardia cyst excretion in infected Beagle puppies, oral dose on three successive days (Biological Example 2)
Format: in vivo
Description: Method: The quantitative determination of the cyst excretion was performed using a modified version of Hewlett (18): 4 g faeces were dissolved in 100 ml of water, sieved and allowed to sediment. The sediment was applied to a 1 M sucrose gradient (specific gravity 1.13), and the cysts, which were concentrated at the sucrose/water boundary layer after the centrifugation were pipetted off. After a wash step followed by centrifugation, the cysts in the pellet were counted. To this end, an aliquot of the pellet was counted under the microscope, and the number of cysts per g faeces was calculated.
Beagle puppies aged 11-15 weeks which had at least 2 weeks to settle in the animal centre before being infected were infected orally with 50 000 Giardia duodenalis cysts before the beginning of the study. The cysts for the infection were obtained with the aid of a sucrose gradient from the faeces of dogs which excreted Giardia cysts and stored at 4 degrees centigrade in Bacto-Casitone medium for no longer than 2 weeks. 18 puppies which excreted Giardia cysts were included in the study and kept in individual cages in order to collect the daily total faeces. The quantitative determination of the cyst excretion was performed as an […], with the modification that the aliquot of the pellet was counted under the microscope with the aid of a Fuchs-Rosenthal hematocytometer. The quantitative determination of the cyst excretion was performed for 4 days before the treatment (day −3 to 0), and the puppies were divided randomly into three groups, taking into consideration the cyst excretion. […] The 6 dogs of the control group remained untreated. The quantitative determination of the cyst excretion was continued from day 1 to day 8 after the treatment.

Compound: COC(=O)Nc1nc2ccc(Sc3ccccc3)cc2[nH]1 [fenbendazole]
- Activity (calculated activity on cyst excretion versus infected untreated control, day 3 to 8, 50 mg/kg oral on days 0, 1 and 2, 50 mg/kg): 48.3%
- Σ Giardia cyst excretion D0 (group line Σ (6 dogs), D0, day of treatment, 50 mg/kg oral on days D0, D1 and D2): 20274 cysts per g faeces
- Σ Giardia cyst excretion D1 (group line Σ (6 dogs), D1, day of treatment, 50 mg/kg oral on days D0, D1 and D2): 17010 cysts per g faeces
- Σ Giardia cyst excretion D2 (group line Σ (6 dogs), D2, day of treatment, 50 mg/kg oral on days D0, D1 and D2): 1735 cysts per g faeces
- Σ Giardia cyst excretion D3 (group line Σ (6 dogs), D3, after the treatment, 50 mg/kg oral on days D0, D1 and D2): 13929 cysts per g faeces
- Σ Giardia cyst excretion D4 (group line Σ (6 dogs), D4, after the treatment, 50 mg/kg oral on days D0, D1 and D2): 12781 cysts per g faeces
- Σ Giardia cyst excretion D5 (group line Σ (6 dogs), D5, after the treatment, 50 mg/kg oral on days D0, D1 and D2): 7555 cysts per g faeces
- Σ Giardia cyst excretion D6 (group line Σ (6 dogs), D6, after the treatment, 50 mg/kg oral on days D0, D1 and D2): 5494 cysts per g faeces
- Σ Giardia cyst excretion D7 (group line Σ (6 dogs), D7, after the treatment, 50 mg/kg oral on days D0, D1 and D2): 12913 cysts per g faeces
- Σ Giardia cyst excretion D8 (group line Σ (6 dogs), D8, after the treatment, 50 mg/kg oral on days D0, D1 and D2): 4795 cysts per g faeces
- Σ Giardia cyst excretion D−1 (group line Σ (6 dogs), day −1, before treatment, 50 mg/kg oral on days D0, D1 and D2): 58990 cysts per g faeces
- Σ Giardia cyst excretion D−2 (group line Σ (6 dogs), day −2, before treatment, 50 mg/kg oral on days D0, D1 and D2): 22257 cysts per g faeces
- Σ Giardia cyst excretion D−3 (group line Σ (6 dogs), day −3, before treatment, 50 mg/kg oral on days D0, D1 and D2): 29963 cysts per g faeces
- Σ Giardia cyst excretion Day 3 to 8 (group, after treatment, 50 mg/kg oral on days 0, 1 and 2): 9578 cysts per g faeces
- Σ Giardia cyst excretion Day: −3 to 0 (group, before treatment, 50 mg/kg oral on days 0, 1 and 2): 32871 cysts per g faeces
- Giardia cyst excretion D0 (individual dogs, D0, day of treatment, 50 mg/kg oral on days D0, D1 and D2, 50 mg/kg): 49400 cysts per g faeces and 28559 cysts per g faeces and 639 cysts per g faeces and 2719 cysts per g faeces and 17037 cysts per g faeces and 23290 cysts per g faeces
- Giardia cyst excretion D1 (individual dogs, D1, day of treatment, 50 mg/kg oral on days D0, D1 and D2, 50 mg/kg): 67200 cysts per g faeces and 14596 cysts per g faeces and 872 cysts per g faeces and 12488 cysts per g faeces and 6178 cysts per g faeces and 723 cysts per g faeces
- Giardia cyst excretion D2 (individual dogs, D2, day of treatment, 50 mg/kg oral on days D0, D1 and D2, 50 mg/kg): 0 cysts per g faeces (2×) and 5980 cysts per g faeces and 3386 cysts per g faeces and 490 cysts per g faeces and 552 cysts per g faeces
- Giardia cyst excretion D3 (individual dogs, D3, after the treatment, 50 mg/kg oral on days D0, D1 and D2, 50 mg/kg): 67109 cysts per g faeces and 7043 cysts per g faeces and 961 cysts per g faeces and 3075 cysts per g faeces and 0 cysts per g faeces and 5388 cysts per g faeces
- Giardia cyst excretion D4 (individual dogs, D4, after the treatment, 50 mg/kg oral on days D0, D1 and D2, 50 mg/kg): 49423 cysts per g faeces and 652 cysts per g faeces and 439 cysts per g faeces and 12038 cysts per g faeces and 0 cysts per g faeces and 14133 cysts per g faeces
- Giardia cyst excretion D5 (individual dogs, D5, after the treatment, 50 mg/kg oral on days D0, D1 and D2, 50 mg/kg): 3116 cysts per g faeces and 18725 cysts per g faeces and 4432 cysts per g faeces and 0 cysts per g faeces (2×) and 19057 cysts per g faeces
- Giardia cyst excretion D6 (individual dogs, D6, after the treatment, 50 mg/kg oral on days D0, D1 and D2, 50 mg/kg): 4635 cysts per g faeces and 7546 cysts per g faeces and 5594 cysts per g faeces and 3691 cysts per g faeces and 0 cysts per g faeces and 11495 cysts per g faeces
- Giardia cyst excretion D7 (individual dogs, D7, after the treatment, 50 mg/kg oral on days D0, D1 and D2, 50 mg/kg): 17474 cysts per g faeces and 20780 cysts per g faeces and 260 cysts per g faeces and 18056 cysts per g faeces and 251 cysts per g faeces and 20657 cysts per g faeces
- Giardia cyst excretion D8 (individual dogs, D8, after the treatment, 50 mg/kg oral on days D0, D1 and D2, 50 mg/kg): 0 cysts per g faeces (2×) and 5555 cysts per g faeces and 5968 cysts per g faeces and 10875 cysts per g faeces and 6370 cysts per g faeces
- Giardia cyst excretion D−1 (individual dogs, day −1, before treatment, 50 mg/kg oral on days D0, D1 and D2, 50 mg/kg): 243143 cysts per g faeces and 56014 cysts per g faeces and 2349 cysts per g faeces and 16328 cysts per g faeces and 14744 cysts per g faeces and 21360 cysts per g faeces
- Giardia cyst excretion D−2 (individual dogs, day −2, before treatment, 50 mg/kg oral on days D0, D1 and D2, 50 mg/kg): 47754 cysts per g faeces and 23808 cysts per g faeces and 26526 cysts per g faeces and 18113 cysts per g faeces and 7230 cysts per g faeces and 10109 cysts per g faeces
